The target in one assay is T1, human Fatty Acid Synthase (Homo sapiens, UniProt P49327).
T1 construct: made in house
T1 sequence (P49327 whole entry): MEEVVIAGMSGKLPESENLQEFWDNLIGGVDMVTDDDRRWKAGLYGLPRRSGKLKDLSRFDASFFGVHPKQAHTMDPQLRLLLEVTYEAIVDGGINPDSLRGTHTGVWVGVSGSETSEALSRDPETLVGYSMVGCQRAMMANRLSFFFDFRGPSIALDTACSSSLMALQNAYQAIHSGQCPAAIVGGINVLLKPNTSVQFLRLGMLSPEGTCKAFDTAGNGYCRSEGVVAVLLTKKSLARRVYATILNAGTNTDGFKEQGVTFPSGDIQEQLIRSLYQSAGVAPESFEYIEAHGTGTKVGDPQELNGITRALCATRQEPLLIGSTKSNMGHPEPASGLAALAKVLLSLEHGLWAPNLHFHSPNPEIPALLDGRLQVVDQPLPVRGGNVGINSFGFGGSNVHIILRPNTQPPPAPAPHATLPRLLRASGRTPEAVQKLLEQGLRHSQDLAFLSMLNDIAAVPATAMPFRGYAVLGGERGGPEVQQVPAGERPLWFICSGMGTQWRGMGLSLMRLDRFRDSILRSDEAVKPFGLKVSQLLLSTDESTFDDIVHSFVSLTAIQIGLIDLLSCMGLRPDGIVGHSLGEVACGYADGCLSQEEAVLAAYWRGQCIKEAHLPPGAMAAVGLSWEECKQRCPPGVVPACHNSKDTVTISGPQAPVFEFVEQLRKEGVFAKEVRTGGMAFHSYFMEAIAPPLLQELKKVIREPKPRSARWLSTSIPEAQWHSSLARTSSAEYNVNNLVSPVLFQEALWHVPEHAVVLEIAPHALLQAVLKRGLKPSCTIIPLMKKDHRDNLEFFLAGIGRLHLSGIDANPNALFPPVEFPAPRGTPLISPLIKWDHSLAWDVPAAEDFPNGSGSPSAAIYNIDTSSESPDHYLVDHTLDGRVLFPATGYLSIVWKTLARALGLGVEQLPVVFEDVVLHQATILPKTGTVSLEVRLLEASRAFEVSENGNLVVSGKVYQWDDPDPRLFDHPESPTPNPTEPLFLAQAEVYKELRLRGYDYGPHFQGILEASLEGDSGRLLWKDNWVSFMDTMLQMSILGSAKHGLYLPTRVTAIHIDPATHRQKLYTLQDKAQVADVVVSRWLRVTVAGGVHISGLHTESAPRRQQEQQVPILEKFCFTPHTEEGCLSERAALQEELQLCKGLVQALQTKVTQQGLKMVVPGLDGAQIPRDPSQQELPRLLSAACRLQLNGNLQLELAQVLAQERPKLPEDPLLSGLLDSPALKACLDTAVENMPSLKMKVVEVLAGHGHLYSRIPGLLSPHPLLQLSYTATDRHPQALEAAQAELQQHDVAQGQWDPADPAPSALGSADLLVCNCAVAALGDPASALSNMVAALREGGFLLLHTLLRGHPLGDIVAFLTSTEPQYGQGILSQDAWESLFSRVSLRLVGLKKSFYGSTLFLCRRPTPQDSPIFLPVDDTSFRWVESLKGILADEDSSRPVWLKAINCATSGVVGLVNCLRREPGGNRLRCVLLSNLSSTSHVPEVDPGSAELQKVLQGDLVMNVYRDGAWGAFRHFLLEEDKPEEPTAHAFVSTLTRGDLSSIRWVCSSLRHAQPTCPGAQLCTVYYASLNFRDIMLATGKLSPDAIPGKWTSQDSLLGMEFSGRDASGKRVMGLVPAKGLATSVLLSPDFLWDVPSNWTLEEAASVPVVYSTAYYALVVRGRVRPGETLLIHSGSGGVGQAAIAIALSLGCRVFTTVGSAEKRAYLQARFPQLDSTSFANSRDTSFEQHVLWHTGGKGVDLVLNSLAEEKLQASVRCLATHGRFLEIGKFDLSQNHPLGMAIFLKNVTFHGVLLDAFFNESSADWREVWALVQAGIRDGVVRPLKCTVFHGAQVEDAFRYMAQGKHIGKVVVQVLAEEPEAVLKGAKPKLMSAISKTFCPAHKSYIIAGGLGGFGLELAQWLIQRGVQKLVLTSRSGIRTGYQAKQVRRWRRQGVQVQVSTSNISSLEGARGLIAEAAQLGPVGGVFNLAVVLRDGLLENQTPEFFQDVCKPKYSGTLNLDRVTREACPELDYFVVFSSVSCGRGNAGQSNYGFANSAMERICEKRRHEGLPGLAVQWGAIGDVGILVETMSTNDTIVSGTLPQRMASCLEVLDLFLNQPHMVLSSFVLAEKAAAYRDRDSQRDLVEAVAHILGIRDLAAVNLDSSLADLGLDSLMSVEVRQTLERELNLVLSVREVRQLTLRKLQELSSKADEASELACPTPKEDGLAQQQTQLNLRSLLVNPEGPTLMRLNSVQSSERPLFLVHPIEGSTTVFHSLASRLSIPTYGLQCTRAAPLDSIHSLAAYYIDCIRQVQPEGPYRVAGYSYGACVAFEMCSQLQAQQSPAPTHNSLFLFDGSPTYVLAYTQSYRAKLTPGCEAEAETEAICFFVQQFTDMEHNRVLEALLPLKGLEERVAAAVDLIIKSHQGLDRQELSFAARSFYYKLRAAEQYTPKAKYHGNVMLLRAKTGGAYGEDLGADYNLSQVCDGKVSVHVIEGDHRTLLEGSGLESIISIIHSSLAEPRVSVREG
Briefly: Human FAS enzyme assay (decrease in NADPH fluorescence). It counts as biochemical. The conditions noted are these: % inhibition at a concentration of 100 μmolar. Put shortly: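 In-house human FAS was preincubated with compound and NADPH for 15 min at room temperature in 0.1 M Tris pH 7.5 with EDTA, glutathione and BSA. Malonyl CoA and acetyl CoA (500 μM and 150 μM in the added mix) were then added for 60 min. IC50 came from time-zero-subtracted NADPH fluorescence (340/460 nm).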
Usually inhibition stands for the change of the read-out against control, counted positive when it falls. On to `CC(C)NC(=O)Nc1cc(C(=O)N2CCC(c3ccc(C#N)cc3)CC2)ccc1OC(F)(F)F` [Example 4, 3-[5-[4-(4-cyanophenyl)piperidine-1-carbonyl]-2-(trifluoromethoxy)phenyl]-1-propan-2-yl-urea], for which the inhibition at 100 µM amounted to 86.1%.
For `Cc1ccc(C(=O)N2CCC(c3ccc(C#N)cc3)CC2)cc1NC(=O)NCCc1cccnc1` [Example 66, 1-[5-[4-(4-cyanophenyl)piperidine-1-carbonyl]-2-methyl-phenyl]-3-(2-pyridin-3-ylethyl)urea], the inhibition at 100 µM was 91.5%.
`CCS(=O)(=O)NCCNC(=O)Nc1cc(C(=O)N2CCC(c3ccc(C#N)cc3)CC2)ccc1C` [Example 110, 3-[5-[4-(4-cyanophenyl)piperidine-1-carbonyl]-2-methyl-phenyl]-1-[2-(ethylsulfonylamino)ethyl]urea]: the inhibition at 100 µM is 94.2%.
The same measure, in the same setting: to `Cc1ccc(C(=O)N2CCC(c3ccc(C#N)cc3)CC2)cc1NC(=O)N(C)CCN(C)C` [Example 394, 3-[5-[4-(4-cyanophenyl)piperidine-1-carbonyl]-2-methylphenyl]-1-(2-dimethylaminoethyl)-1-methylurea] belongs 68.7%; to `Cc1cc(CNC(=O)Nc2cc(C(=O)N3CCC(c4ccc(C#N)cc4)CC3)ccc2C)[nH]n1` [Example 292, 1-[5-[4-(4-cyanophenyl)piperidine-1-carbonyl]-2-methyl-phenyl]-3-[(5-methyl-2H-pyrazol-3-yl)methyl]urea], 95.6%; to `Cc1cc(CNC(=O)Nc2cc(C(=O)N3CCC(c4ccc(C#N)cc4)CC3)ccc2C)no1` [Example 246, 1-[5-[4-(4-cyanophenyl)piperidine-1-carbonyl]-2-methyl-phenyl]-3-[(5-methyl-1,2-oxazol-3-yl)methyl]urea], 105%.
As for `Cc1ccc(C(=O)N2CCC(c3ccc(C#N)cc3)CC2)cc1NC(=O)NC1COc2ccccc2OC1` [Example 163, 1-[5-[4-(4-cyanophenyl)piperidine-1-carbonyl]-2-methyl-phenyl]-3-(2,6-dioxabicyclo[5.4.0]undeca-8,10,12-trien-4-yl)urea], the inhibition at 100 µM was 102%.
Same read-out and setting: to `Cc1ccc(C(=O)N2CCC(c3ccc(C#N)cc3)CC2)cc1NC(N)=O` [Example 366, [5-[4-(4-cyanophenyl)piperidine-1-carbonyl]-2-methylphenyl]urea] belongs 101%; to `Cc1ccc(C(=O)N2CCC(c3ccc(C#N)cc3)CC2)cc1NC(=O)NCCOCCO` [Example 189, 1-[5-[4-(4-cyanophenyl)piperidine-1-carbonyl]-2-methyl-phenyl]-3-[2-(2-hydroxyethoxy)ethyl]urea], 85.6%; to `Cc1ccc(C(=O)N2CCC(c3ccc(C#N)cc3)CC2)cc1NC(=O)NCC1COc2ccccc2O1` (stereo not drawn) [Example 165, 1-[5-[4-(4-cyanophenyl)piperidine-1-carbonyl]-2-methyl-phenyl]-3-(7,10-dioxabicyclo[4.4.0]deca-2,4,11-trien-8-ylmethyl)urea], 92.4%.
Still for that read-out and setting: the value for `Cc1ccc(C(=O)N2CCC(c3ccc(C#N)cc3)CC2)cc1NC(=O)NCc1cn(C)cn1` [Example 267, 1-[5-[4-(4-cyanophenyl)piperidine-1-carbonyl]-2-methyl-phenyl]-3-[(1-methylimidazol-4-yl)methyl]urea] was 90.9%; that for `Cc1ccc(NC(=O)NC(C)(C)C)cc1C(=O)N1CCC(c2ccc(C#N)cc2)CC1` [Example 376, 3-tert-butyl-1-[3-[4-(4-cyanophenyl)piperidine-1-carbonyl]-4-methylphenyl]urea] was 68.4%.
On the same count and under the same terms, to `Cc1ccc(C(=O)N2CCC(c3ccc(C#N)cc3)CC2)cc1NC(=O)NC(C)(C)CNc1ccccc1` [Example 59, 3-(1-anilino-2-methyl-propan-2-yl)-1-[5-[4-(4-cyanophenyl)piperidine-1-carbonyl]-2-methyl-phenyl]urea] belongs 87.2%; to `CCS(=O)(=O)N[C@@H]1CCCC[C@@H]1NC(=O)Nc1cc(C(=O)N2CCC(c3ccc(C#N)cc3)CC2)ccc1C` (relative stereo) [Example 309, 3-[5-[4-(4-cyanophenyl)piperidine-1-carbonyl]-2-methyl-phenyl]-1-[(cis)-2-(ethylsulfonylamino)cyclohexyl]urea], 96.7%.
In the case of `Cc1ccc(C(=O)N2CCC(c3ccc(F)cc3)CC2)cc1NC(=O)NC1CCN(C(=O)OC(C)(C)C)C1` (stereo not drawn) [Example 343, tert-butyl 3-[[5-[4-(4-fluorophenyl)piperidine-1-carbonyl]-2-methyl-phenyl]carbamoylamino]pyrrolidine-1-carboxylate], the inhibition at 100 µM turned out to be 93.6%.
On the same count and under the same terms, to `Cc1ccc(NC(=O)N2CCCC2)cc1C(=O)N1CCC(c2ccc(C#N)cc2)CC1` [Example 29, N-[3-[4-(4-cyanophenyl)piperidine-1-carbonyl]-4-methyl-phenyl]pyrrolidine-1-carboxamide] belongs 79.6%.
With `Cc1ccc(C(=O)N2CCC(c3ccc(C#N)cc3)CC2)cc1NC(=O)NC(C)C` [Example 3, 3-[5-[4-(4-cyanophenyl)piperidine-1-carbonyl]-2-methyl-phenyl]-1-propan-2-yl-urea], the inhibition at 100 µM was 95.6%.
With `Cc1ccc(C(=O)N2CCC(c3ccc(C#N)cc3)CC2)cc1NC(=O)N1CC(O)C1` [Example 345, N-[5-[4-(4-cyanophenyl)piperidine-1-carbonyl]-2-methyl-phenyl]-3-hydroxy-azetidine-1-carboxamide], the inhibition at 100 µM came out at 96.5%.
Still for that read-out and setting: the value for `Cc1ccc(C(=O)N2CCC(c3ccc(C#N)cc3)CC2)cc1NC(=O)NCCCNC(=O)C(C)C` [Example 274, N-[3-[[5-[4-(4-cyanophenyl)piperidine-1-carbonyl]-2-methyl-phenyl]carbamoylamino]propyl]-2-methyl-propanamide] was 86%; that for `Cc1ccc(C(=O)N2CCC(c3ccc(C#N)cc3)CC2)cc1NC(=O)NCc1ccccc1F` [Example 34, 1-[5-[4-(4-cyanophenyl)piperidine-1-carbonyl]-2-methyl-phenyl]-3-[(2-fluorophenyl)methyl]urea] was 86.5%; that for `Cc1ccc(C(=O)N2CCC(c3ccc(C#N)cc3)CC2)cc1NC(=O)N(C)CC(=O)NC(C)C` [Example 398, 2-[[5-[4-(4-cyanophenyl)piperidine-1-carbonyl]-2-methylphenyl]carbamoyl-methylamino]-N-propan-2-ylacetamide] was 66.3%.
`Cc1ccc(C(=O)N2CCC(c3ccc(C#N)cc3)CC2)cc1NC(=O)NC1CCOC(C)(C)C1` (stereo not drawn) [Example 77, 1-[5-[4-(4-cyanophenyl)piperidine-1-carbonyl]-2-methyl-phenyl]-3-(2,2-dimethyloxan-4-yl)urea]: the inhibition at 100 µM is 89.6%.

The assay is the same for the next values; noted with them: FAS enzyme assay, IC50 from fitted sigmoid curves.
As to `COC(=O)C(C)(C)NC(=O)Nc1cc(C(=O)N2CCC(c3ccc(C#N)cc3)CC2)ccc1C` [Methyl 2-[[5-[4-(4-cyanophenyl)piperidine-1-carbonyl]-2-methylphenyl]carbamoylamino]-2-methylpropanoate], the “IC50, inhibition of human Fatty Acid Synthase” value was “do not have IC50s in the range of about 0.001 μM to about 30 μM”.
In the case of `Cc1ccc(C(=O)N2CCC(O)(c3ccccc3)CC2)cc1NC(=O)NC(C)C` [1-[5-(4-hydroxy-4-phenylpiperidine-1-carbonyl)-2-methylphenyl]-3-propan-2-ylurea], the “IC50, inhibition of human Fatty Acid Synthase” value is recorded as “do not have IC50s in the range of about 0.001 μM to about 30 μM”.

For the origin of these results see patent publication US20090118332A1, “Therapeutic Agents - 551” (AstraZeneca AB, priority 2006, published 2009).
